Measurements from patent US6455506B1, “Lyxofuranosyl benzimidazoles as antiviral agents” (SmithKline Beecham Corporation, priority 1997, dated 2002).
Like-named read-outs stand apart in the source and are kept apart here.

How the values were obtained:
Hepatitis B Virus (HBV) = assay: Activity against Hepatitis B Virus (Jansen et al.); assay type: cell-based; conditions: two separate tests
Experimental: The activity of compounds against Hepatitis B Virus (HBV) was assessed as described in Jansen, R., et al., Antimicrobial Agents and Chemotherapy, Vol. 37, No. 3, pp. 441-447, 1993.

[1] = Inhibition of KB cell growth (crystal violet); assay type: cell-based; conditions: human, KB cells; KB cell growth, 48 hours, quadruplicate; read-out: Cytotoxicity growth (IC50)
Experimental: (§1) Two different assays were used for routine cytotoxicity testing. (i) Cytotoxicity produced in stationary HFF cells was determined by microscopic inspection of cells not affected by the virus used in plaque assays (see Turk, S. R.; Shipman, C., Jr.; Nassiri, M. R.; Genzingler, G.; Krawczyk, S. H.; Townsend, L. B.; Drach, J. C. Pyrrolo[2,3-]pyrimidine Nucleosides as Inhibitors of Human Cytomegalovirus, Antimicrob. Agents Chemother. 1987, 31, 544-550). (ii) The effect of compounds during two population doublings of KB cells was determined by crystal violet staining and spectrophotometric quantitation of dye eluted from stained cells as described earlier (see Prichard, M. N.; Prichard, L. E., Baguley, W. A.; Nassiri, M. R.; Shipman, C., Jr. Three-Dimensional Analysis of the Synergistic Cytotoxicity of Ganciclovir and Zidovudine. Antiviral Res. 1991, 35, 1060-1065). Briefly, 96-well cluster dishes were planted with KB cells at 3000-5000 cells per well. After overnight incubation at 37° C., test compound was added in quadruplicate at six to eight concentrations. Plates were incubated at 37° C. for 48 hours in a CO2 incubator, rinsed, fixed with 95% ethanol, and stained with 0.1% crystal violet. Acidified ethanol was added and plates read at 570 nm in a spectrophotometer designed to read 96-well ELISA assay plates.
(§2) Dose-response relationships were constructed by linearly regressing the percent inhibition of parameters derived in the preceding sections against log drug concentrations. Fifty-percent inhibitory concentrations (IC50's) or IC90's were calculated from the regression lines. Samples containing positive controls (acyclovir for HSV-1, ganciclovir for HCMV, and 2-acetylpyridine thiosemicarbazone for cytotoxicity) were used in all assays.

HCMV Strain AD169 = assay: HCMV plaque reduction assay, strain AD169; assay type: cell-based, Human cytomegalovirus; conditions: Human betaherpesvirus 5, Table 3, read-out: HCMV Strain AD169 plaque 50% Inhibitory Concentration (IC50)
Experimental: (§3) HFF cells in 24-well cluster dishes were infected with approximately 100 p.f.u. of HCMV per cm^2 cell sheet using the procedures detailed above. Following virus adsorption, compounds dissolved in growth medium were added to duplicate wells in four to eight selected concentrations. After incubation at 37° C. for 7 to 10 days, cell sheets were fixed, stained with crystal violet and microscopic plaques enumerated as described above.
as §2

[2] = Visual cytotoxicity in stationary HFF cells; assay type: cell-based; conditions: human; HFF cells, scored at time of HCMV plaque enumeration; read-out: Cytotoxicity visual (IC50)
Experimental: as §1, §2

HSV-1 [3] = assay: HSV-1 ELISA in BSC-1 cells; assay type: cell-based, herpes simplex virus 1; conditions: Human alphaherpesvirus 1, quadruplicate wells, read-out: HSV-1 ELISA 50% Inhibitory Concentration (IC50)
Experimental: An ELISA was employed (see Prichard, M. N.; Shipman, C., Jr. A Three Dimensional Model to Analyze Drug-Drug Interactions. Antiviral Res. 1990, 14, 181-206) to detect HSV-1. Ninety-six-well cluster dishes were planted with 10,000 BSC-1 cells per well in 200 μL per well of MEM(E) plus 10% calf serum. After overnight incubation at 37° C., selected drug concentrations in quadruplicate and HSV-1 at a concentration of 100 p.f.u./well were added. Following a 3-day incubation at 37° C., medium was removed, plates were blocked, rinsed, and horse radish peroxidase conjugated rabbit anti-HSV-1 antibody was added. Following removal of the antibody containing solution, plates were rinsed, and then developed by adding 150 μL per well of a solution of tetramethylbenzidine as substrate. The reaction was stopped with H2SO4 and absorbance was read at 450 and 570 nm. Drug effects were calculated as a percentage of the reduction in absorbance in the presence of each drug concentration compared to absorbance obtained with virus in the absence of drug.
as §2

HCMV [4] = assay: HCMV plaque reduction assay (Towne strain) in HFF cells; assay type: cell-based, Human cytomegalovirus
Experimental: (§4) Stock HCMV was prepared by infecting HFF cells at a multiplicity of infection (m.o.i.) of <0.01 plaque-forming units (p.f.u.) per cell as detailed previously (see Turk, S. R.; Shipman, C., Jr.; Nassiri, M. R.; Genzingler, G.; Krawczyk, S. H.; Townsend, L. B.; Drach, J. C. Pyrrolo[2,3-d]pyrimidine Nucleosides as Inhibitors of Human Cytomegalovirus, Antimicrob. Agents Chemother. 1987, 31, 544-550). High titer HSV-1 stocks were prepared by infecting KB cells (ATCC) at an m.o.i. of <0.1 also as detailed previously (see Turk, S. R.; Shipman, C., Jr.; Nassiri, M. R.; Genzingler, G.; Krawczyk, S. H.; Townsend, L. B.; Drach, J. C. Pyrrolo[2,3-d]pyrimidine Nucleosides as Inhibitors of Human Cytomegalovirus, Antimicrob. Agents Chemother. 1987, 31, 544-550). Virus titers were determined using monolayer cultures of HFF cells for HCMV and monolayer cultures of BSC-1 cells for HSV-1 as described earlier (see Prichard, M. N.; Turk, S. R.; Coleman, L. A.; Engelhardt, S. L.; Shipman, C., Jr.; Drach, J. C. A Microtiter Virus Yield Reduction Assay for the Evaluation of Antiviral Compounds Against Human Cytomegalovirus and Herpes Simplex Virus. J. Virol. Methods 1990, 28, 101-106). Briefly, HFF or BSC-1 cells were planted as described above in 96-well cluster dishes and incubated overnight at 37° C. The next day cultures were inoculated with HCMV or HSV-1 and serially diluted 1:3 across the remaining eleven columns of the 96-well plate. After virus adsorption the inoculum was replaced with fresh medium and cultures were incubated for seven days for HCMV, two or three days for HSV-1. Plaques were enumerated under 20-fold magnification in wells having the dilution which gave 5 to 20 plaques per well. Virus titers were calculated according to the following formula: Titer (p.f.u./mL)=number of plaques×5×3^n; where n represents the nth dilution of the virus used to infect the well in which plaques were enumerated.
as §3, §2

HCMV [5] = assay: HCMV yield reduction assay (Towne strain) in HFF cells; assay type: cell-based, Human cytomegalovirus
Experimental: as §4
HFF cells were planted as described above in 96-well cluster dishes, incubated overnight, medium removed and the cultures were inoculated with HCMV at a m.o.i. of 0.5 to 1 p.f.u. per cell as reported elsewhere (see Prichard, M. N.; Turk, S. R.; Coleman, L. A.; Engelhardt, S. L.; Shipman, C., Jr.; Drach, J. C. A Microtiter Virus Yield Reduction Assay for the Evaluation of Antiviral Compounds Against Human Cytomegalovirus and Herpes Simplex Virus. J. Virol. Methods 1990, 28, 101-106). After virus adsorption, inoculum was replaced with 0.2 mL of fresh medium containing test compounds. The first row of 12 wells was left undisturbed and served as virus controls. Each well in the second row received an additional 0.1 mL of medium with test compound at three times the desired final concentration. The contents of the 12 wells were mixed by repeated pipetting and then serially diluted 1:3 along the remaining wells. In this manner, six compounds could be tested in duplicate on a single plate with concentrations from […]. Plates were incubated at 37° C. for seven days, subjected to one cycle of freezing and thawing; aliquots from each of the eight wells of a given column were transferred to the first column of a fresh 96-well monolayer culture of HFF cells. Contents were mixed and serially diluted 1:3 across the remaining eleven columns of the secondary plate. Each column of the original primary plate was diluted across a separate plate in this manner. Cultures were incubated, plaques were enumerated, and titers calculated as described above.
as §2

HCMV [6] = conditions: background, literature report; cited from earlier work
HSV-1 [7] = assay: HSV-1 plaque assay (used for DHPG); assay type: cell-based, herpes simplex virus 1; conditions: Human alphaherpesvirus 1; plaque assay used for DHPG instead of ELISA (footnote b); read-out: HSV-1 plaque assay 50% Inhibitory Concentration (IC50)
Experimental: as §4, with “Briefly, HFF or BSC-1 cells were planted as described above in 96-well cluster dishes and incubated overnight at 37° C. The next day cultures were inoculated with HCMV or HSV-1 and serially diluted 1:3 across the remaining eleven columns of the 96-well plate. After virus adsorption the inoculum was replaced with fresh medium and cultures were incubated for seven days for HCMV, two or three days for HSV-1. Plaques were enumerated under 20-fold magnification in wells having the dilution which gave 5 to 20 plaques per well.” left out

[8] = Human betaherpesvirus 5, HFF, Table 3, same data as Table 2, read-out: HCMV Strain Towne plaque 50% Inhibitory Concentration (IC50)
[9] = Human betaherpesvirus 5, Table 2, HFF cells, duplicate, read-out: HCMV plaque 50% Inhibitory Concentration (IC50)
[10] = Human betaherpesvirus 5, HFF, Table 3, same data as Table 2, read-out: HCMV Strain Towne yield 90% Inhibitory Concentration (IC90)
[11] = Human betaherpesvirus 5, Table 2, HFF cells, duplicate, read-out: HCMV yield 90% Inhibitory Concentration (IC90)

IC50 (Hepatitis B Virus (HBV); Hepatitis B virus) | IC50 (Hepatitis B Virus (HBV)) | melting point | IC50 (HCMV Strain AD169) | IC50 (HSV-1 [3]) | IC50 (HCMV [4]; [8]) | IC50 (HCMV [4]; [9]) | IC90 (HCMV [5]; [10]) | IC90 (HCMV [5]; [11]) | IC50 (HSV-1 [7]) | SMILES | IC50 at 48 h [1] | IC50 [2] | inhibition of HCMV (HCMV [6])
8800 nM | 16000 nM | 178 to 179 °C | 800 nM | > 100000 nM | 2800 nM | 2800 nM | 800 nM | 800 nM | – | OC[C@@H]1O[C@@H](n2c(Br)nc3cc(Cl)c(Cl)cc32)[C@H](O)[C@@H]1O [Compound 5a, 2-Bromo-5,6dichloro-1-(α-L-lyxofuranosyl)benzimidazole] | > 100000 nM | > 100000 nM | –
– | – | – | 1800 nM | – | 2900 nM | – | 1400 nM | – | – | OC[C@H]1O[C@@H](n2c(Cl)nc3cc(Cl)c(Cl)cc32)[C@H](O)[C@@H]1O [TCRB, 2,5,6-trichloro-1-(β-D-ribofuranosyl)benzimidazole, reference compound] | – | – | significant inhibitors of HCMV
– | – | – | – | – | – | 7400 ± 6500 nM | – | 1600 ± 1200 nM | 3500 ± 2100 nM | Nc1nc(O)c2ncn(COC(CO)CO)c2n1 [ganciclovir (DHPG), ganciclovir, reference compound] | > 100000 nM | > 100000 nM | –
– | – | – | – | – | – | – | – | – | – | OC[C@H]1O[C@@H](n2c(Br)nc3cc(Cl)c(Cl)cc32)[C@H](O)[C@@H]1O [BDCRB, 2-bromo-5,6-dichloro-1-(β-D-ribofuranosyl)benzimidazole] | – | – | significant inhibitors of HCMV
